# Values of other authors in US10426749B2, “Safflower oil emulsion as dietary supplement and preparation thereof” (INNOVITAMIN ORGANICS, LLC, priority 2011, dated 2019).
# System: post-menopausal, obese women with type 2 diabetes
# Settings: 8 grams daily for 16 weeks
substance,measurement,value
conjugated linoleic acid [CLA],"metabolic parameters (trunk fat mass, HDL cholesterol, fasting glucose, insulin sensitivity, C-reactive protein)",did not significantly alter
